According to PMC4774911, “Biochemical Screening of Five Protein Kinases from Plasmodium falciparum against 14,000 Cell-Active Compounds” (PLoS ONE, 2016):
Read-outs that look alike come from different tables or passages of the source.

What was measured:
[1] = target: T1, Plasmodium falciparum protein kinase 6 (PK6) (Plasmodium falciparum, UniProt Q8IDW1); experiment: biochemical; details: hits below 1 uM; read-out: PK6 IC50
T1 construct: 6-Histidine (N); made in house
T1 sequence (Q8IDW1 1-305): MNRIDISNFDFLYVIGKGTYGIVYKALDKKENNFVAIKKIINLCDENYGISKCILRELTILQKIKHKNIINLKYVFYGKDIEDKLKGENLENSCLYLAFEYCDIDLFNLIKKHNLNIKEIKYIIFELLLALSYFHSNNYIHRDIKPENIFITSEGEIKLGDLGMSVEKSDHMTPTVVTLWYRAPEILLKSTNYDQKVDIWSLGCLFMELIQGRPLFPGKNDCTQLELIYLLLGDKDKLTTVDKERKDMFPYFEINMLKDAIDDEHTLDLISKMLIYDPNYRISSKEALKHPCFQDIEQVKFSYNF

HepG2 cells = details: Nature 2010, cited from earlier work
P. falciparum 3D7 cells = details: Nature 2010, cited from earlier work
DD2 [2] = test system: DD2; parameters: method as in F.J. Gamo et al., Nature 2010; details: downloaded from ChEMBL, ref F.J. Gamo et al., Nature 2010; cited from earlier work
3D7 PFLDH [3] = test system: 3D7 PFLDH; parameters: method as in F.J. Gamo et al., Nature 2010; concentration or dose not given beside the values; details: downloaded from ChEMBL, ref F.J. Gamo et al., Nature 2010; cited from earlier work
[4] = target: T2, Plasmodium falciparum calcium-dependent protein kinase 1 (CDPK1) (Plasmodium falciparum, UniProt P62344); experiment: CDPK1 Kinase-Glo ATP-consumption screen and dose-response; assay type: biochemical; details: hits below 1 uM; read-out: CDPK1 IC50
T2 construct: 6-Histidine (N); made in house
T2 sequence (P62344 whole entry): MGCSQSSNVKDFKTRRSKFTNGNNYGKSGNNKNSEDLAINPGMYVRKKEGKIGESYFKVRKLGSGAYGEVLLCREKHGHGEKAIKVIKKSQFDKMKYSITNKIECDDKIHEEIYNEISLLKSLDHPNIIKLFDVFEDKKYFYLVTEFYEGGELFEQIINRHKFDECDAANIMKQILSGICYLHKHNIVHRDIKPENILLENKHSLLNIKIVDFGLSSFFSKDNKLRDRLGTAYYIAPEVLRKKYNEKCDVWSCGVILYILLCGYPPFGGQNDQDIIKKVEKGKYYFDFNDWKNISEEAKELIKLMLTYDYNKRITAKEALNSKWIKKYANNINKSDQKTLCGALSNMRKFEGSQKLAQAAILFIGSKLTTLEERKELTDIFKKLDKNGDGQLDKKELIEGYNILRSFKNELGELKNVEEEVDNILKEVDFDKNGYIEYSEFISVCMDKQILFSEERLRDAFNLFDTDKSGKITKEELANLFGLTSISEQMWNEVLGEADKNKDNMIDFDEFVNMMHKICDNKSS
Description: Biochemical assays were performed in white 384-well plates (Nunc). Liquid transfers were done manually with 8-channel pipets. Compounds were initially tested in a single-point screen (final concentration 1 μM). […] The catalytic activity of each kinase was considered proportional to ATP consumed, as determined from measurements of residual [ATP] with the luciferase-based reagent Kinase-Glo (Promega) following incubation. Luminescence (proportional to residual [ATP]) was measured on the plate readers FLx800 (BioTek Instruments, Winooski, VT, USA) and MicroBeta^2 (PerkinElmer, Waltham, MA, USA). Incubation times were chosen to ensure near-complete ATP depletion in the absence of inhibition, thus maximizing the difference in signal between inhibited and uninhibited wells.
40 μM Syntide-2 was used as a substrate; BKI-1 [14] was used as a control inhibitor, while reaction mixtures lacking Syntide-2 were included as an additional negative control. Incubation time was 90 minutes. Reactions were terminated by adding excess EGTA (5 mM), which sequesters Ca^2+ and halts calcium-dependent kinase activity.

DD2 [5] = test system: DD2; parameters: method as in F.J. Gamo et al., Nature 2010; details: P. falciparum Dd2; downloaded from ChEMBL ref F.J. Gamo et al., Nature 2010; cited from earlier work
3D7 PFLDH [6] = test system: 3D7 PFLDH; parameters: method as in F.J. Gamo et al., Nature 2010; details: downloaded from ChEMBL ref F.J. Gamo et al., Nature 2010; cited from earlier work
[7] = HepG2, downloaded from ChEMBL, ref F.J. Gamo et al.
[8] = 3D7, downloaded from ChEMBL, ref F.J. Gamo et al.
[9] = HepG2 cells, downloaded from ChEMBL ref F.J. Gamo et al.
[10] = P. falciparum 3D7, downloaded from ChEMBL ref F.J. Gamo et al.

Compound	IC50 [1]	PCT_INHIB_HEPG2 (HepG2 cells; [7])	PCT_IHB_3D7 (P. falciparum 3D7 cells; [8])	pXC50_3D7 (P. falciparum 3D7 cells; [8])	PCT_INHB_DD2 (DD2 [2])	PCT_INHIB_3D7_PFLDH (3D7 PFLDH [3])	IC50 [4]	PCT_INHIB_HEPG2 (HepG2 cells; [9])	PCT_IHB_3D7 (P. falciparum 3D7 cells; [10])	pXC50_3D7 (P. falciparum 3D7 cells; [10])	PCT_INHB_DD2 (DD2 [5])	PCT_INHIB_3D7_PFLDH (3D7 PFLDH [6])
CS(=O)(=O)Cc1ccc(Nc2ncc(Cl)c(Nc3cccnc3C(N)=O)n2)cc1.Cl [TCMDC-134165]	691 nM	54%	97%	6.062	97%	0%						
CS(=O)(=O)Cc1cccc(Nc2ncc(Cl)c(Nc3cccnc3C(N)=O)n2)c1.Cl [TCMDC-134166]	74 nM	56%	96%	6.775	97%	0%						
CC(=O)Nc1ccc(Nc2ncc([N+](=O)[O-])c(Nc3ccccc3C(N)=O)n2)cc1.Cl [TCMDC-138731]	128 nM	42%	98%	6.437	97%	2%						
COc1ccc(C(=O)NCC(C)(C)c2nc(-c3ccc(Cl)c(O)c3)c(-c3ccncc3)[nH]2)cc1OCCN(C(C)C)C(C)C.Cl [TCMDC-140736]							387 nM	62	100	6.192	96	4
CNCC(C)(C)c1nc(-c2ccc(Cl)c(O)c2)c(-c2ccncc2)[nH]1.Cl [TCMDC-140762]							49 nM	46	98	6.133	96	0
CC(C)(CNC(=O)C1CCN(Cc2ccoc2)CC1)c1nc(-c2ccc(Cl)c(O)c2)c(-c2ccncc2)[nH]1.Cl [TCMDC-140954]							425 nM	0	93	6.062	66	0
CC(C)(CN)c1nc(-c2ccc(Cl)c(O)c2)c(-c2ccnc(N)n2)[nH]1 [TCMDC-141019]							7.49 nM	34	95	6.0083	95	0
CC(C)(CNC(=O)[C@H]1CCCN1)c1nc(-c2ccc(Cl)c(O)c2)c(-c2ccncc2)[nH]1.Cl [TCMDC-141060]							179 nM	0	86	5.895	95	0
CC(C)(CNC(=O)[C@H]1CCCCN1)c1nc(-c2ccc(Cl)c(O)c2)c(-c2ccncc2)[nH]1.Cl [TCMDC-141070]							164 nM	6	98	6.139	98	0
CC(C)(CNC(=O)[C@@H]1CCCCN1)c1nc(-c2ccc(Cl)c(O)c2)c(-c2ccncc2)[nH]1.Cl [TCMDC-141079]							192 nM	0	97	6.075	96	0
CC(C)(CNC(=O)C1CCN(CCOCc2ccccc2)CC1)c1nc(-c2ccc(Cl)c(O)c2)c(-c2ccncc2)[nH]1.Cl [TCMDC-141122]							734 nM	11	100	6.208	18	0
CC(C)(CNC(=O)C1CCN(CCOc2ccc(Cl)cc2)CC1)c1nc(-c2ccc(Cl)c(O)c2)c(-c2ccncc2)[nH]1.Cl [TCMDC-141124]							471 nM	40	100	6.149	5	7
CC(C)(CNC(=O)C1CCN(CCOc2ccc(F)c(F)c2)CC1)c1nc(-c2ccc(Cl)c(O)c2)c(-c2ccncc2)[nH]1.Cl [TCMDC-141136]							664 nM	41	100	6.5	19	0
CC(C)(CNC(=O)C1CCN(Cc2ccc(Cl)cc2)CC1)c1nc(-c2ccc(Cl)c(O)c2)c(-c2ccncc2)[nH]1.Cl [TCMDC-141138]							347 nM	36	100	6.206	83	0
Cl.Oc1cc(-c2nc(C3(CNCc4ccc(Cl)cc4)CCCCC3)[nH]c2-c2ccncc2)ccc1Cl [TCMDC-141155]							846 nM	35	100	6.903	99	2
CC(C)(CNCCOc1ccc(Cl)cc1)c1nc(-c2ccnc(N)n2)c(-c2ccc(Cl)c(O)c2)[nH]1.Cl [TCMDC-141161]							755 nM	45	97	6.079	19	0
CC(C)(CNCc1ccc(C(F)(F)F)cc1)c1nc(-c2ccnc(N)n2)c(-c2ccc(Cl)c(O)c2)[nH]1.Cl [TCMDC-141162]							353 nM	32	100	6.817	37	0
CC(C)(CNCc1ccc(F)c(F)c1)c1nc(-c2ccnc(N)n2)c(-c2ccc(Cl)c(O)c2)[nH]1.Cl [TCMDC-141163]							469 nM	41	99	6.131	79	0
CN(C)CCOc1ccc(-c2cc(-c3ccc(Cl)c(O)c3)c(-c3ccnc(N)n3)o2)cc1 [TCMDC-141332]							168 nM	43	100	5.879	95	2
CN(C)CCOc1ccc(-c2cc(-c3ccnc(N)n3)c(-c3ccc(Cl)c(O)c3)o2)cc1 [TCMDC-141338]							684 nM	14	100	6.01	91	5
